Measurements as given in patent US12279521B2, “Materials for organic electroluminescent devices” (Merck Patent GmbH, priority 2019, dated 2025).

Key:
[1] = Solubility in organic solvents via HPTLC (after 24 hours and 7 days); format: physicochemical
Experimental: One way of processing the materials of the invention is from solution. In addition, it is a feature of materials of the invention that their […] stability is elevated, as apparent from the long-term solubility data in Table 1.
Method of Determining Solubility Via HPTLC
Sample preparation: The material is weighed out in two 25 mg portions (W1, W2), 0.5 ml of solvent is added, and the mixture is shaken at 60° C. for 60 minutes and then at 25° C. and 600 rpm for 24 h. When the solution is clear, more solid material is added until a saturated solution is formed. After being cooled to room temperature, the samples are filtered through a syringe filter (0.2 μm). The solutions are stored in glass vials at room temperature for 7 days, and the solubility is determined by HPTLC on days 1 and 7. For this purpose, the filtered solutions are diluted.
Calibration: Making up a standard solution: about 6 mg of substance are dissolved in 20 ml of 2-methyl-THF. If it is not possible to dissolve the material under these conditions, the concentration can be reduced. The stock solution is diluted for the calibration (standardization).
Chromatographic conditions (HPTLC): plate: HPTLC RP 18 F254, 10×20 cm eluent: methanol/2-methyl-THF 70/30 (V/V)
HPTLC measurement: The HPTLC plate is scanned by a TLC scanner, peaks are integrated and a calibration function is determined.

[2] = Baking of emission layer film at elevated temperature: state of film; format: physicochemical; conditions: Ref. temp. 150, elevated temp. 180; EML mixture per Table 5
Description: The production of the corresponding OLED components is described below.
The emission layer is composed of at least one matrix material (host material) and an emitting dopant (emitter). In addition, it is possible to use mixtures of a plurality of matrix materials and co-dopants. Details given in such a form as TMM-A (92%):dopant (8%) mean here that the material TMM-A is present in the emission layer in a proportion by weight of 92% and dopant in a proportion by weight of 8%. The mixture for the emission layer is dissolved in toluene or optionally chlorobenzene. The typical solids content of such solutions is about 17 g/I when, as here, the layer thickness of 60 nm which is typical of a device is to be achieved by means of spin-coating. The layers are spun on in an inert gas atmosphere, argon in the present case, and baked for 10 minutes.

c1ccc(-c2cccc(-c3cc(-c4cccc(-c5ccccc5)c4)cc(C4(c5cc(-c6cccc(-c7ccccc7)c6)cc(-c6cccc(-c7ccccc7)c6)c5)c5ccccc5-c5c(-c6ccccc6-c6ccccc6)cccc54)c3)c2)cc1 [Compound M-0043]
clear: State of film after baking at elevated temp. [2]
<50 mg/mL: Solubility after 24 hours, Cyclohexylbenzene ([1]; cyclohexylbenzene, 24 hours, room temperature) | Solubility after 7 days, Cyclohexylbenzene ([1]; cyclohexylbenzene, 7 days storage at room temperature) | Solubility after 24 hours, Mesitylene ([1]; mesitylene, 24 hours, room temperature) | Solubility after 7 days, Mesitylene ([1]; mesitylene, 7 days storage at room temperature) | Solubility after 24 hours, Toluene ([1]; toluene, 24 hours, room temperature) | Solubility after 7 days, Toluene ([1]; toluene, 7 days storage at room temperature)
>50 mg/mL: Solubility after 24 hours, Tetralin ([1]; tetralin, 24 hours, room temperature) | Solubility after 7 days, Tetralin ([1]; tetralin, 7 days storage at room temperature)
